Test results taken from US20070004691A1, “Antitumoral combinations containing et-743 and a cruciferous and a cruciferous indole compound” (priority 2003, published 2007).

What was measured:
patients = conditions: prolonged infusion over 24-72 hr; cited from earlier work
13762 tumor = assay: Study of antitumor activity: 13762 tumor fragments implanted sc; assay type: in vivo, rat; conditions: for tumor weight inhibition (TWI): day 20, I3C 0.5% in diet from implantation, ET-743 40 μg/kg i.v. on day 6, female Fischer rats, weight from caliper diameters; for decrease of terminal tumor weight: tumors excised and weighed at termination of the experiment (day 20), I3C 0.5% diet, ET-743 40 μg/kg i.v.
Experimental: (§1) 13762 tumor fragments (100-200 mg weight) were implanted (sc) into the flank of female Fischer rats (100-120 g). […] Properties of the 13762 tumour have previously been described for example in Braunschweiger P. G., and Schiffer L. M. 1980, J. Natl. Cancer Inst., 64: 671-674: “Growth kinetics of mammary tumor 13762 in rats previously cured by chemotherapy”. Tumor weight (TW) was calculated on each day via tumor diameters, using a Vernier caliper and the formula: TW (in mg)=tumor volume (mm3)=d^2×D/2, in which d and D represent the shortest and longest diameter, respectively. Rats (9-10 per group) received I3C in their diet (0.5%) from the day of tumor implantation to the end of the experiment. ET-743 (40 μg/kg, i.v.) was administered on day 6 post tumor implantation.

[1] = Study of ET-743 levels in liver and plasma (HPLC-ESI-MS/MS); assay type: in vivo, rat; conditions: for AUC of ET-743 in liver (0-24 h after dosing), mean: rat liver; for AUC of ET-743 in plasma (0-24 h after dosing), mean: rat plasma
Experimental: We tested the hypothesis that I3C pretreatment alters clearance of ET-743 from plasma and liver in vivo. Blood samples and liver tissue were collected from rats before and up to 24 h after administration of ET-743 (40 μg/kg iv.) with or without treatment with I3C (0.5% in the diet) given from 6 days prior to ET-743. Blood samples (by cardiac puncture) and liver tissue were collected before and at 0.5, 1, 3, 6, 12 and 24 h post treatment. Blood was placed in heparinized tubes, and plasma was obtained by centrifugation. An aliquot (0.3 ml) was mixed with 0.7 ml ammonium acetate buffer (0.2 M, pH 5.0). Liver tissue was homogenized (1:1) in water. Levels of ET-743 were measured by HPLC coupled to electrospray ionization tandem mass spectrometry in the plasma and liver samples.

female Wistar rats = assay: Study of hepatotoxicity: protection against ET-743-induced liver damage; assay type: in vivo, rat
Experimental: I3C at 0.1 or 0.5% or di-indolyl methane (DIM) at 0.2% were added to the diet of female Wistar rats (230-260 g) seven days prior to treatment with a hepatotoxic dose of ET-743 (40 μg/kg, iv. via the lateral tail vein). This amount constitutes doses equivalent to approximately 80 and 400 mg/kg I3C per day. Control animals received the unaltered diet and/or water as the vehicle for ET-743. The dose of DIM was based on the following consideration: DIM is the product of the condensation of two molecules of I3C, therefore assuming all of the I3C in the 0.5% dose group dimerises to form DIM, the maximal amount of DIM which could theoretically be generated is half of the amount of I3C in the diet. Each treatment group comprised 4 animals. Hepatic changes were studied by assessment of alterations in plasma levels of bilirubin and liver enzymes ALP and aspartate aminotransferase (AST) and by conventional histopathological investigation of liver tissue.

[2] = system: mice, rats, dogs and monkeys; conditions: plasma liver-specific enzymes, cholangitis; cited from earlier work
[3] = system: human tumour xenografts grown in athymic mice; conditions: including melanoma and ovarian and breast carcinoma; cited from earlier work
female Fischer rats = assay: Protection against pathological manifestations of ET-743 in the liver of tumor-bearing Fischer rats; assay type: in vivo; conditions: 0.5% dietary I3C, compared with Wistar rat
Experimental: as §1

rat livers = assay: Hepatoprotection by modulators of drug metabolism against ET-743; conditions: compared with dexamethasone
female rat = conditions: high-dose dexamethasone pretreatment; cited from earlier work
[4] = ET-743 40 μg/kg iv in combination with I3C (0.5% in the diet from 6 days prior)
[5] = ET-743 alone, 40 μg/kg iv, female Wistar rats
[6] = I3C 0.1% in diet plus ET-743 40 μg/kg iv

SMILES: COc1cc2c(cc1O)CCN[C@]21CS[C@@H]2c3c(OC(C)=O)c(C)c4c(c3[C@H](COC1=O)N1C2C2c3c(cc(C)c(OC)c3O)C[C@@H]([C@@H]1O)N2C)OCO4 (stereo partly shown) [ET-743, Ecteinascidin 743]
- side effects in patients (patients): myelotoxic and hepatotoxic
- tumor weight inhibition (TWI) (13762 tumor): 62%
- decrease of terminal tumor weight (13762 tumor): 54%
- AUC of ET-743 in liver (0-24 h after dosing), mean [1, 4]: 563 ngxh/ml
- AUC of ET-743 in plasma (0-24 h after dosing), mean [1, 4]: 1.9 ngxh/ml
- AUC of ET-743 in liver (0-24 h after dosing), mean ([1]; ET-743 alone, 40 μg/kg iv): 280 ngxh/ml
- AUC of ET-743 in plasma (0-24 h after dosing), mean ([1]; ET-743 alone, 40 μg/kg iv): 4.7 ngxh/ml
- activities of ALP and AST (female Wistar rats; [5]): elevated
- plasma levels of bilirubin (female Wistar rats; [5]): dramatically raised
- liver pathology (female Wistar rats; ET-743 alone, 40 μg/kg iv, day 3 and day 9): severe bile duct damage on day 3 and biliary sclerosis on day 9
- side effect in preclinical acute toxicity studies [2]: liver toxicity
- antineoplastic activity [3]: potent

SMILES: OCc1c[nH]c2ccccc12 [I3C, 1H-indole-3-methanol]
- protection against the pathological manifestations of ET-743 in the liver (female Fischer rats): same degree of protection
- tumor weight inhibition (TWI) (13762 tumor): 35%
- decrease of terminal tumor weight (13762 tumor): 43%
- plasma bilirubin levels compared to ET-743 alone (female Wistar rats; I3C 0.1% in diet (approx. 80 mg/kg per day) from seven days prior to ET-743 40 μg/kg iv): moderately reduced
- AST and ALP activity compared with levels induced by ET-743 alone (female Wistar rats; [6]): did not decrease
- pathological manifestations of liver damage compared to ET-743 only (female Wistar rats; [6]): only marginally less severe
- protection as reflected by the biochemical indices (female Wistar rats; I3C 0.5% in diet (approx. 400 mg/kg per day) plus ET-743 40 μg/kg iv): complete
- protection adjudged on the basis of liver pathology (female Wistar rats; I3C 0.5% in diet plus ET-743 40 μg/kg iv, 3 and 9 days): substantial, albeit not complete
- weight of the animals or liver function (biochemical indices or pathology) (female Wistar rats; consumption of I3C on its own in the diet): did not affect

SMILES: CC(=O)N[C@@H](CS)C(=O)O [N-acetylcysteine]
- amelioration of ET-743 mediated hepatotoxicity (rat livers): failed to protect

SMILES: C[C@@H]1C[C@H]2[C@@H]3CCC4=CC(=O)C=C[C@]4(C)[C@@]3(F)[C@@H](O)C[C@]2(C)[C@@]1(O)C(=O)CO [dexamethasone]
- hepatic levels of ET-743 after pretreatment (female rat): dramatic reduction

SMILES: CCC1(c2ccccc2)C(=O)NC(=O)NC1=O [phenobarbitone]
- amelioration of ET-743 mediated hepatotoxicity (rat livers): weak

SMILES: O=c1cc(-c2ccccc2)oc2ccc3ccccc3c12 [β-naphthoflavone]
- amelioration of ET-743 mediated hepatotoxicity (rat livers): persisted only for a short term
